Holding throughout (assay): Kinase selectivity, scanMAX Kinase assay panel (DiscoverX), % control at 1 uM
Assay type in all cases: binding

Assay [1] addresses T1, scanMAX Kinase assay panel (Homo sapiens, UniProt P17612).
T1 construct: purchased DiscoverX
The settings on record: PKAC-alpha; 1 uM; read-out: Percent Control (%). In short, it runs like this: (§1)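 Activity was called for kinases showing % control under 35, calculated from compound signal relative to positive and negative controls. Each compound screened at 1 uM against the DiscoverX scanMAX panel.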

The target of assay [2] is T2, scanMAX Kinase assay panel (Homo sapiens, UniProt Q08881).
T2 construct: purchased DiscoverX
T2 sequence (Q08881 1-620): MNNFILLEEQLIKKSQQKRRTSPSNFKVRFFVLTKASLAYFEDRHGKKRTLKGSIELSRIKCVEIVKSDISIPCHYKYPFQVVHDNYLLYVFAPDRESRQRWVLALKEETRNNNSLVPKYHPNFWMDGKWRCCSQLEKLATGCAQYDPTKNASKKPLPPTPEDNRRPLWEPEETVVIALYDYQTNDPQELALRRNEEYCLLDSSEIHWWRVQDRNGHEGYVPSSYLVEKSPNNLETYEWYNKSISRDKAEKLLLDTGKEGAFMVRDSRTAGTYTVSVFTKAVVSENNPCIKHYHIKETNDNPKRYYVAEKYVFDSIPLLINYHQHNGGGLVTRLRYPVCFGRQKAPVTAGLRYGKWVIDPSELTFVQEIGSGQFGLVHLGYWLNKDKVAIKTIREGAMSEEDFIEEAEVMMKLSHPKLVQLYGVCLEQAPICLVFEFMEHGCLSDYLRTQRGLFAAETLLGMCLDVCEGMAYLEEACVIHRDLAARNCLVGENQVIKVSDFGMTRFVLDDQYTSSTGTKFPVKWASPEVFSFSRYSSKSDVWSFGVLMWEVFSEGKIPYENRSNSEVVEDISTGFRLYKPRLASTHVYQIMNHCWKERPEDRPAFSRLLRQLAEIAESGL
The note with it: ITK; 1 uM; read-out: Percent Control (%). In short, it runs like this:
as §1

The target of assay [3] is T3, scanMAX Kinase assay panel (Homo sapiens, UniProt Q8TDC3).
T3 construct: purchased DiscoverX
T3 sequence (Q8TDC3 1-778): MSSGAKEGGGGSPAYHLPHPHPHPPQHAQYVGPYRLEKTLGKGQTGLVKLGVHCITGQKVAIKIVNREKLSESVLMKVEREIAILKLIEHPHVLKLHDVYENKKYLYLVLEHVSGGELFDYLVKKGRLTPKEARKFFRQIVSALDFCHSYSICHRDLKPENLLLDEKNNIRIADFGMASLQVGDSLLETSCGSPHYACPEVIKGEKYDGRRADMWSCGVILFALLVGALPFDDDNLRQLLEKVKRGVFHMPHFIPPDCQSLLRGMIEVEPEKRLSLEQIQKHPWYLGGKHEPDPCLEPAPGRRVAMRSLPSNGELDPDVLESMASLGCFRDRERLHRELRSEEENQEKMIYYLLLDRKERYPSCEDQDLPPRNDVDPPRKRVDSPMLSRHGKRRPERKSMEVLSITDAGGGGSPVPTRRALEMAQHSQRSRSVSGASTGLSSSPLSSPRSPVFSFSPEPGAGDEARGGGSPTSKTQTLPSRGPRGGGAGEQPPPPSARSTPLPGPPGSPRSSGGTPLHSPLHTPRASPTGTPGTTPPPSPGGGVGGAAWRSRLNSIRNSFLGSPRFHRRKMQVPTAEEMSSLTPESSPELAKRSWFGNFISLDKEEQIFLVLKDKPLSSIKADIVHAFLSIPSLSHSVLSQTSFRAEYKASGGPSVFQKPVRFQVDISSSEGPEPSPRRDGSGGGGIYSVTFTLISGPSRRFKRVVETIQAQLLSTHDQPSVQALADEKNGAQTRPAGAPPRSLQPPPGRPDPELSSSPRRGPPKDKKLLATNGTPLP
The settings on record: BRSK1; 1 uM; read-out: Percent Control (%). In short, it runs like this: as §1

For assay [4], the target named is T4, scanMAX Kinase assay panel (Homo sapiens, UniProt P10721, V559D/V654A).
T4 construct: purchased DiscoverX
T4 sequence (P10721 26-976 V559D/V654A): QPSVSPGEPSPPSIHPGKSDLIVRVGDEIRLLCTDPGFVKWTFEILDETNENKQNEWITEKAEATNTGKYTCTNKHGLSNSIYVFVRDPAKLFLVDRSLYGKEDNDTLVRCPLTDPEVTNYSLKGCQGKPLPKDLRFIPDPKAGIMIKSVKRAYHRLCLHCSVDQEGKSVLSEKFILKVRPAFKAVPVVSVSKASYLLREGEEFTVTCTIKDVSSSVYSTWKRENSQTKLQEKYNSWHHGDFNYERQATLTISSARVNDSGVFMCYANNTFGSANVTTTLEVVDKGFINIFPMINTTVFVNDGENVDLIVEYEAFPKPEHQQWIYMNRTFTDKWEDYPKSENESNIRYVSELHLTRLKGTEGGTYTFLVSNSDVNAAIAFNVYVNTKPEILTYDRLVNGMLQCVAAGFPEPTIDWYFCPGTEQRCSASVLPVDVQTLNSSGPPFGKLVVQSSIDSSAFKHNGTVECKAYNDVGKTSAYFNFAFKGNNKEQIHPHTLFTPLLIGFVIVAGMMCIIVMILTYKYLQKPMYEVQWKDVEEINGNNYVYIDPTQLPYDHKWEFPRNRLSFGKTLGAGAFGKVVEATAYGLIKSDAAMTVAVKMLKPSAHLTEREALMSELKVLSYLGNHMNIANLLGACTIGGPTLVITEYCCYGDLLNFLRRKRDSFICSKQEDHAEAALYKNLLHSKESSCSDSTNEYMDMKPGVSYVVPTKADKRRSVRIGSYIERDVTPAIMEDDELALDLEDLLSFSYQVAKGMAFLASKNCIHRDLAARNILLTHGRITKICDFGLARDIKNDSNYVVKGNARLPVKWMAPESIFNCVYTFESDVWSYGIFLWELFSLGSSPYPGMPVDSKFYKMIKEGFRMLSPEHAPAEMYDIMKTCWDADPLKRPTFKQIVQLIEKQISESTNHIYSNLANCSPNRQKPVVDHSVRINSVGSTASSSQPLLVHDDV
The note with it: KIT (V559D, V654A); 1 uM; read-out: Percent Control (%). In short, it runs like this: as §1

Assay [5] has as its target T5, scanMAX Kinase assay panel (Homo sapiens, UniProt O94806).
T5 construct: purchased DiscoverX
T5 sequence (O94806 1-890): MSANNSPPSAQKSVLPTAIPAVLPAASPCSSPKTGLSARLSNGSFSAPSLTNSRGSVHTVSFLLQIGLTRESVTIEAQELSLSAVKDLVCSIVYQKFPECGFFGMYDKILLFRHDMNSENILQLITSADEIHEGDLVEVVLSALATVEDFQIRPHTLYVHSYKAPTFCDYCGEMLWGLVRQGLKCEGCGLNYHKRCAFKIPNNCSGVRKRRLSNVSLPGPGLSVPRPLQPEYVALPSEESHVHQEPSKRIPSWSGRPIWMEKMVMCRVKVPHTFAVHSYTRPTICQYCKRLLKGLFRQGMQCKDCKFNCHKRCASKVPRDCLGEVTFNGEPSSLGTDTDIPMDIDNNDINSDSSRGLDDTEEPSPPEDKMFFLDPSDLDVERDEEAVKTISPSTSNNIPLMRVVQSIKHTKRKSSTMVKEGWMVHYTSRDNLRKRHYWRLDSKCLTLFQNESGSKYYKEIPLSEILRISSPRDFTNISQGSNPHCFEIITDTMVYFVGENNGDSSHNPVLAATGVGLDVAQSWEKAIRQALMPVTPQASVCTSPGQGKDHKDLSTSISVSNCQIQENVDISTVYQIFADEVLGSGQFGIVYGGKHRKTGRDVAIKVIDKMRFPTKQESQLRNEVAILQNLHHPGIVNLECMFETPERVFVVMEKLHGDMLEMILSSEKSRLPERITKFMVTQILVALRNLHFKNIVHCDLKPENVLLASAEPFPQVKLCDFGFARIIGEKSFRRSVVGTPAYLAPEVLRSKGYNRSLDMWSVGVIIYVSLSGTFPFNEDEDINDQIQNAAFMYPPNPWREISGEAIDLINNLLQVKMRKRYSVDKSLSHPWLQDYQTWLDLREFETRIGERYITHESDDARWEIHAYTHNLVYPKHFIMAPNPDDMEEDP
The note with it: PRKD3; 1 uM; read-out: Percent Control (%). In short, it runs like this: as §1

The values below come from US10870647B2, “Imidazopyridine derivative, method for preparing same, and pharmaceutical composition containing same as active ingredient for preventing or treating cancer” (DAEGU-GYEONGBUK MEDICAL INNOVATION FOUNDATION, priority 2016, dated 2020).

Each structure is given as a SMILES string.

Take `Cc1ccc(C(=O)Nc2ccc(CN3CCN(C)CC3)c(C(F)(F)F)c2)cc1C#Cc1cnc2c(Nc3cnn(C)c3)cccn12` [Example 1, 4-methyl-3-((8-((1-methyl-1H-pyrazol-4-yl)amino)imidazo[1,2-a]pyridin-3-yl)ethynyl)-N-(4-((4-methylpiperazin-1-yl)methyl)-3-(trifluoromethyl)phenyl)benzamide]: the remaining binding at 1 µM is 35% in assay [1]; 0% in assay [2]; 100% in assay [3]; 1% in assay [4]; 43% in assay [5].

Consider `Cc1ccc(NC(=O)C2(C(=O)Nc3ccc(F)cc3)CC2)cc1C#Cc1cnc2c(Nc3cnn(C(C)C)c3)cccn12` [Example 78], for which the remaining binding at 1 µM in assay [1] is 100%; in assay [2], 97%; in assay [3], 100%; in assay [4] it was 10%; in assay [5], 88%.

Regarding `Cc1cn(-c2cc(NC(=O)c3ccc(C)c(C#Cc4cnc5c(Nc6cnn(C)c6)cccn45)c3)cc(C(F)(F)F)c2)cn1` [Example 12, 4-methyl-N-(3-(4-methyl-1H-imidazol-1-yl)-5-(trifluoromethyl)phenyl)-3-((8-((1-methyl-1H-pyrazol-4-yl)amino)imidazo[1,2-a]pyridin-3-yl)ethynyl)benzamide], the remaining binding at 1 µM in assay [1] came out at 93%; in assay [2] it was 69%; in assay [3] it was 83%; in assay [4], 11%; in assay [5] it was 96%.
